# Strand notation (5' to 3'): a small letter for the sugar, then the base; units joined by * are phosphorothioate-linked, units joined directly phosphodiester-linked; [ ] holds rarer units or linkages, { } end groups; capitals alone tell only the bases. [UNA-N] = unlocked nucleic acid (N: the base); [invdT] = inverted (3'-3') thymidine; d = 2'-deoxy (DNA); m = 2'-O-methyl; f = 2'-fluoro
# Key:
# [1] = system: human EPAS1 (Hif2α) cDNA in psiCHECK2 (Renilla luciferase/EPAS1 fusion mRNA) in Hep3B cells; assay: Hif2α RNAi trigger EC50 determination, dual-luciferase reporter assay; assay type: cell-based; conditions: UNA modified at site 6 or 7, EPAS1-psiCHECK2, same conditions, read-out: EC50 UNAs EC50
# Excerpt: Candidate sequences were identified by in silico analysis and screened as chemically modified canonical siRNAs in vitro. For screening purposes, the human EPAS1 (Hif2α) cDNA sequence (accession #NM 001430) was synthesized and cloned (DNA 2.0, Menlo Park, Calif.) into a commercially-available reporter-based screening plasmid, psiCHECK2 (Promega, Madison, Wis.) which generated a Renilla luciferase/EPAS1 fusion mRNA. For RNAi trigger efficacy evaluation, Hep3B cells, a human hepatocellular carcinoma line, were plated at 10,000 cells per well in 96-well format. Each of the 187 EPAS1 RNAi triggers, in two subsets, was co-transfected at two concentrations, 1 nM and 0.1 nM, with 25 ng EPAS1-psiCHECK2 plasmid DNA per well and 0.2 μL LipoFectamine 2000 (Life Technologies) per well. Gene knockdown was determined by measuring Renilla luciferase levels normalized to the levels of constitutively-expressed firefly luciferase, also present on the psiCHECK-2 plasmid, using the Dual Luciferase Reporter Assay (Promega, Madison, Wis.) Table 5.
# The eight best canonical sequences were further evaluated by determining the EC50 concentration. Each trigger was assessed for knockdown under the same conditions and assays as above, but at 10 different concentrations ranging from 0.00051 nM to 10 nM. EC50 were determined using GraphPad Prism software. Each of the top five canonical sequences were modified to contain UNA at sites 6 and 7. These triggers, along with their parent canonical sequences, were evaluated side-by-side for EC50 concentration determination using the same conditions and assays as above, Table 6.
# [2] = system: human (tumor) Hif2α (EPAS1) mRNA; assay: Hif2α expression in RCC tumor bearing mice after single injection of RGD targeted conjugates, 72 h, RT-qPCR (Table 11); assay type: in vivo; conditions: trigger 80 μg, polymer 126 280 μg
# Protocol: Female athymic nude mice were anesthetized with ˜3% isoflourane and placed in the right lateral decubitus position. A small, 0.5-1 cm, longitudinally abdominal incision in the left flank was made. Using a moist cotton swab, the left kidney was lifted out of the peritoneum and gently stabilized. Just before injection, a 1.0 ml syringe was filled with the cell/Matrigel mixture and a 27 gauge needle catheter was attached to the syringe tip. The filled syringe was then attached to a syringe pump (Harvard Apparatus, model PHD2000) and primed to remove air. The tip of a 27-gauge needle catheter attached to a syringe was inserted just below the renal capsule near the caudal pole and the tip of the needle was then carefully advanced cranially along the capsule 3-4 mm. A 10 μl aliquot of 2:1 (vol:vol) cell/matrigel mixture containing about 300,000 cells was slowly injected into the kidney parenchyma using a syringe pump. The needle was left in the kidney for 15-20 seconds to ensure the injection was complete. The needle was then removed from the kidney and a cotton swab was placed over the injection site for 30 seconds to prevent leakage of the cells or bleeding. The kidney was then gently placed back into the abdomen and the abdominal wall was closed. Serum was collected every 7-14 days after implantation to monitor tumor growth using a commercial SEAP assay kit. For most studies, tumor mice were used 5-6 weeks after implantation, when tumor measurements were typically around 4-8 mm.
# In preparation for quantitative PCR, total RNA was isolated from tissue samples homogenized in TriReagent (Molecular Research Center, Cincinnati, Ohio) following the manufacturer's protocol. Approximately 500 ng RNA was reverse-transcribed using the High Capacity cDNA Reverse Transcription Kit (Life Technologies). For human (tumor) Hif2α (EPAS1) expression, pre-manufactured TaqMan gene expression assays for human Hif2α (Catalog #4331182) and CycA (PPIA) Catalog #: 4326316E) were used in biplex reactions in triplicate using TaqMan Gene Expression Master Mix (Life Technologies) or VeriQuest Probe Master Mix (Affymetrix). For human (tumor) VegFa (VEGFA) expression, pre-manufactured TaqMan gene expression assays for human VegFa (Catalog #4331182, Assay ID: Hs00900055) and CycA (Part#: 4326316E) were used in biplex reactions in triplicate using TaqMan Gene Expression Master Mix (Life Technologies) or VeriQuest Probe Master Mix (Affymetrix). Quantitative PCR was performed by using a 7500 Fast or StepOnePlus Real-Time PCR system (Life Technologies). The ΔΔCT method was used to calculate relative gene expression.
# RGD targeted HiF2α-RNAi trigger delivery polymer conjugates were formed using polymer 126, 100A, or 006. The RNAi trigger, μg indicates the quantity of trigger reacted with polymer. The polymer was modified with the indicated RGD mimic and PEG modifying agents as described above. Kidney RCC tumor-bearing mice were generated as described and treated with a single tail vein injection of isotonic glucose (G1) or the indicated Hif2α RNAi trigger-delivery polymer conjugate. Mice were euthanized 72 h (day 4) after injection and total RNA was prepared from kidney tumor using Trizol reagent following manufacturer's recommendation. Relative HiF2α mRNA levels were determined by RT-qPCR as described and compared to mice treated with delivery buffer (isotonic glucose) only (Table 11).
# [3] = system: human (tumor) Hif2α (EPAS1) mRNA; assay: Hif2α knockdown in orthotopic RCC tumor bearing mice, single injection of RNAi trigger-delivery polymer conjugate, RT-qPCR (Table 7); assay type: in vivo; conditions: RNAi trigger 80 μg, polymer 126 400 μg; single tail vein injection; relative to isotonic glucose
# Summary of the method: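 A single intravenous dose of Hif2α RNAi trigger–delivery polymer conjugate, or isotonic glucose vehicle, was given to nude mice with subcapsular A498-SEAP renal tumours (about 5–6 weeks old). At the indicated time, tumour RNA was assayed by biplex TaqMan qPCR against CycA, and relative expression was calculated by ΔΔCT versus vehicle.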
# [4] = system: human (tumor) Hif2α (EPAS1) mRNA; assay: HiF2α RNAi trigger/sunitinib combination study: HiF2α expression in RCC tumors (Table 10A); assay type: in vivo; conditions: 4 doses, 3 cycles
# Protocol: Female athymic nude mice were anesthetized with ˜3% isoflourane and placed in the right lateral decubitus position. A small, 0.5-1 cm, longitudinally abdominal incision in the left flank was made. Using a moist cotton swab, the left kidney was lifted out of the peritoneum and gently stabilized. Just before injection, a 1.0 ml syringe was filled with the cell/Matrigel mixture and a 27 gauge needle catheter was attached to the syringe tip. The filled syringe was then attached to a syringe pump (Harvard Apparatus, model PHD2000) and primed to remove air. The tip of a 27-gauge needle catheter attached to a syringe was inserted just below the renal capsule near the caudal pole and the tip of the needle was then carefully advanced cranially along the capsule 3-4 mm. […]
# In preparation for quantitative PCR, total RNA was isolated from tissue samples homogenized in TriReagent (Molecular Research Center, Cincinnati, Ohio) following the manufacturer's protocol. […] Quantitative PCR was performed by using a 7500 Fast or StepOnePlus Real-Time PCR system (Life Technologies). […]
# (§1) Tumor growth rates were evaluated by serum SEAP collected at 5-7 days interval during treatment. Tumor weight and volume was determined at necropsy. Gross tumor morphology and H&E histopathology were evaluated.
# [5] = system: A498-SEAP ccRCC orthotopic kidney tumor; assay: HiF2α RNAi trigger/sunitinib combination study: tumor size and SEAP expression (Table 10B); assay type: in vivo, mice; conditions: trigger = Duplex AD1884 with polymer 064 (125 μg polymer) iv every 4 weeks, 4 doses, sunitinib oral gavage, 3 cycles
# Protocol: HiF2α RNAi trigger-delivery polymer conjugate (125 μg polymer) was prepared using protocol 7 Duplex ID No. AD1884 and polymer 064. HiF2α RNAi trigger-delivery polymer conjugate was dosed every 4 weeks by iv injection, 4 doses total. Sunitinib (Malate salt) obtained from LC laboratories was suspended in Ora-plus/Ora sweet (50:50, vol:vol). […]
# as §1
Compound,EC50 [1] [nM],further results
"AD00990: Hif2α RNAi trigger, XD-02404 sequence modified to contain UNA at site 6 (antisense dTfAmAfAmU[UNA-C]mGfUmUfAmCfGmUfUmGfAmCfAmGdT*dT; sense dTfGmAfGmGfAmGfCmUfUmGfUmGfUmGfUmUfCmGdT*dT)",0.153,–
"AD00989: Hif2α RNAi trigger, XD-02371 sequence modified to contain UNA at site 6 (antisense dTfCmUfAmG[UNA-C]mAfAmCfAmAfAmAfCmCfUmUfAmAdT*dT; sense fUmUfAmAfGmGfUmUfUmUfGmUfUmGfCmUfAmGfA[invdT])",0.375,–
"AD00992: Hif2α RNAi trigger, XD-02415 sequence modified to contain UNA at site 6 (antisense dTfAmAfGmU[UNA-U]mAfAmGfCmUfCmCfCmAfUmAfCmAdT*dT; sense fUmGfUmAfUmGfGmGfAmGfCmUfUmAfAmCfUmUfA[invdT])",0.142,–
"AD00995: Hif2α RNAi trigger, XD-02404 sequence modified to contain UNA at site 7 (antisense dTfAmAfAmUfC[UNA-G]fUmUfAmCfGmUfUmGfAmCfAmGdT*dT; sense dTfGmAfGmGfAmGfCmUfUmGfUmGfUmGfUmUfCmGdT*dT)",0.169,–
"AD01031: Hif2α RNAi trigger duplex used in the multi-dose conjugate of Example 15 (antisense TUUCAUGAAAUCGUUACGUTT; sense ACGUAACGAUUUCAUGAAAT; Hif2alpha RNAi agent antisense strand; modified_base 2,4,6,8,10,12,14,16,18 /mod_base = “2′-deoxy-2′-fluoro corresponding nucleoside”; modified_base 3,5,7,9,11,13,15,17,19 /mod_base = “2′-O-methyl corresponding nucleoside”; modified_base 21 /mod_base = “5′-phosphorothioate corresponding nucleotide”; Hif2alpha RNAi agent sense strand; modified_base 1,3,5,7,9,11,13,15,17,19 /mod_base = “2′-deoxy-2′-fluoro corresponding nucleoside”; modified_base 2,4,6,8,10,12,14,16,18 /mod_base = “2′-O-methyl corresponding nucleoside”; modified_base 20 /mod_base = “3′-3′-linked nucleotide”; modified_base 1 /mo)",–,"Relative Expression day 4 (Hif2α) ([2]; RGD-PEG8-ACit-PABC-PNP 0.4×, PEG6-ACit-PABC-PNP): 0.311; Relative Expression day 4 (Hif2α) ([2]; RGD-PEG8-HyNic 0.5×, PEG12-ACit-PABC-PNP): 0.300; Relative Expression day 4 (Hif2α mRNA in kidney tumor) [3]: 0.20"
"AD00988: Hif2α RNAi trigger, XD-02335 sequence modified to contain UNA at site 6 (antisense dTfGmUfAmA[UNA-A]mAfCmAfAmUfUmGfUmGfUmAfCmUdT*dT; sense fAmGfUmAfCmAfCmAfAmUfUmGfUmUfUmUfAmCfA[invdT])",0.841,–
"AD00996: Hif2α RNAi trigger, XD-02407 sequence modified to contain UNA at site 7 (antisense dTfUmUfCmAfU[UNA-G]fAmAfAmUfCmGfUmUfAmCfGmUdT*dT; sense fAmCfGmUfAmAfCmGfAmUfUmUfCmAfUmGfAmAfA[invdT])",0.118,–
"CCN(CC)CCNC(=O)c1c(C)[nH]c(/C=C2\C(=O)Nc3ccc(F)cc32)c1C [sunitinib, Sunitinib]",–,"Relative HiF2α expression levels decreased ([4]; DPC 125 μg polymer iv every 4 weeks, sunitinib oral gavage 5 days/week 2 weeks on, 2 weeks off): 11.4%; HiF2α expression, Relative expression ([4]; trigger = Duplex AD1884 with polymer 064 (125 μg polymer) iv every 4 weeks, sunitinib oral gavage 5 days/week, 2 weeks on/2 off): 0.886; Tumor volume ([5]; at necropsy): 2113.5 ± 368 mm3; Tumor weight ([5]; at necropsy): 2385.7 ± 845 mg; Fold increase in SEAP ([5]; serum SEAP, overall): 18.1 ± 9.8"
"AD00994: Hif2α RNAi trigger, XD-02371 sequence modified to contain UNA at site 7 (antisense dTfCmUfAmGfC[UNA-A]fAmCfAmAfAmAfCmCfUmUfAmAdT*dT; sense fUmUfAmAfGmGfUmUfUmUfGmUfUmGfCmUfAmGfA[invdT])",0.0807,–
"AD00997: Hif2α RNAi trigger, XD-02415 sequence modified to contain UNA at site 7 (antisense dTfAmAfGmUfU[UNA-A]fAmGfCmUfCmCfCmAfUmAfCmAdT*dT; sense fUmGfUmAfUmGfGmGfAmGfCmUfUmAfAmCfUmUfA[invdT])",0.183,–
"AD00991: Hif2α RNAi trigger, XD-02407 sequence modified to contain UNA at site 6 (antisense dTfUmUfCmA[UNA-U]mGfAmAfAmUfCmGfUmUfAmCfGmUdT*dT; sense fAmCfGmUfAmAfCmGfAmUfUmUfCmAfUmGfAmAfA[invdT])",0.35,–
"AD00993: Hif2α RNAi trigger, XD-02335 sequence modified to contain UNA at site 7 (antisense dTfGmUfAmAfA[UNA-A]fCmAfAmUfUmGfUmGfUmAfCmUdT*dT; sense fAmGfUmAfCmAfCmAfAmUfUmGfUmUfUmUfAmCfA[invdT])",0.55,–
